Data as given in patent EP4782450A1, “NOVEL SKELETAL DERIVATIVE EFFECTIVE FOR HER2 MUTATION, AND PHARMACEUTICAL COMPOSITION COMPRISING SAME” (Hanmi Pharm. Co., Ltd., priority 2023, dated 2025).
Like-named read-outs stand apart in the source and are kept apart here.

Key:
[1] = tested on: Ba/F3 HER2 A775insYVMA; experiment: Growth inhibition of Ba/F3 cells engineered to overexpress HER2 A775_G776insYVMA (CellTiter-Glo luminescence); type: cell-based; conditions: concentrations 1000 to 0.32 nM, read-out: Ba/F3 HER2^YVMA GI50 class
Procedure, shortened: (§1)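 Ba/F3 cells overexpressing HER2 A775_G776insYVMA (1000–0.32 nM) or wild-type EGFR (10000–8 nM) treated 72 h at 37°C in RPMI/10% FBS. Viability by CellTiter-Glo luminescence; GI50 by nonlinear regression with untreated growth set at 100%.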

[2] = tested on: wild-type EGFR overexpressing Ba/F3 cells; experiment: Growth inhibition of Ba/F3 cells engineered to overexpress wild-type EGFR (CellTiter-Glo luminescence); type: cell-based; conditions: concentrations 10000 to 8 nM, read-out: Ba/F3 EGFR^WT GI50 class
Procedure, shortened: as §1

Molecule | GI50 ([1]; Mus musculus, BaF3, 72 hours) | GI50 ([2]; Mus musculus, BaF3, 72 hours) | GI50 ([1]; 72 hours) | GI50 ([2]; 72 hours)
C=CC(=O)N1CCC[C@@H]1C#Cc1ccc2ncnc(Nc3ccc(Oc4ccc5c(c4)ncn5C)c(C)c3)c2c1 [Example 85, (R)-1-(2-((4-((3-methyl-4-((1-methyl-1H-benzo[d]imidazol-5-yl)oxy)phenyl)amino)quinazolin-6-yl)ethynyl)pyrrolidin-1-yl)prop-2-en-1-one] | < 100 nM | 100 to 1000 nM |  | 
C=CC(=O)N1CCC[C@@H]1C#Cc1ccc2ncnc(Nc3ccc(OC4=CC5N=CN(C)C5C=C4)c(C)c3)c2n1 (stereo partly drawn) [Example 86, 1-((2R)-2-((4-((3-methyl-4-((1-methyl-3a,7a-dihydro-1H-benzo[d]imidazol-5-yl)oxy)phenyl)amino)pyrido[3,2-d]pyrimidin-6-yl)ethynyl)pyrrolidin-1-yl)prop-2-en-1-one] | < 100 nM | 1000 to 5000 nM |  | 
C=CC(=O)N1CCCC[C@@H]1C#Cc1ccc2ncnc(Nc3ccc(Oc4ccc5c(c4)ncn5C)c(C)c3)c2n1 [Example 88, (R)-1-(2-((4-((3-methyl-4-((1-methyl-1H-benzo[d]imidazol-5-yl)oxy)phenyl)amino)pyrido[3,2-d]pyrimidin-6-yl)ethynyl)piperidin-1-yl)prop-2-en-1-one] | < 100 nM | 1000 to 5000 nM |  | 
C=CC(=O)N1CCCC[C@H]1C#Cc1ccc2ncnc(Nc3ccc(Oc4ccc5c(c4)ncn5C)c(C)c3)c2n1 [Example 89, (S)-1-(2-((4-((3-methyl-4-((1-methyl-1H-benzo[d]imidazol-5-yl)oxy)phenyl)amino)pyrido[3,2-d]pyrimidin-6-yl)ethynyl)piperidin-1-yl)prop-2-en-1-one] | < 100 nM | 1000 to 5000 nM |  | 
C=CC(=O)N1CCC[C@@H]1C#Cc1ncc2ncnc(Nc3ccc(OC4=CC5N=CN(C)C5C=C4)c(C)c3)c2n1 (stereo partly drawn) [Example 90, 1-((2R)-2-((8-((3-methyl-4-((1-methyl-3a,7a-dihydro-1H-benzo[d]imidazol-5-yl)oxy)phenyl)amino)pyrimido[5,4-d]pyrimidin-2-yl)ethynyl)pyrrolidin-1-yl)prop-2-en-1-one] | < 100 nM | < 100 nM |  | 
C=CC(=O)N1CCCC[C@@H]1C#Cc1ncc2ncnc(Nc3ccc(Oc4ccc5c(c4)ncn5C)c(C)c3)c2n1 [Example 91, (R)-1-(2-((8-((3-methyl-4-((1-methyl-1H-benzo[d]imidazol-5-yl)oxy)phenyl)amino)pyrimido[5,4-d]pyrimidin-2-yl)ethynyl)piperidin-1-yl)prop-2-en-1-one] | 100 to 1000 nM | 100 to 1000 nM |  | 
C=CC(=O)N1CCCC[C@H]1C#Cc1ncc2ncnc(Nc3ccc(Oc4ccc5c(c4)ncn5C)c(C)c3)c2n1 [Example 92, (S)-1-(2-((8-((3-methyl-4-((1-methyl-1H-benzo[d]imidazol-5-yl)oxy)phenyl)amino)pyrimido[5,4-d]pyrimidin-2-yl)ethynyl)piperidin-1-yl)prop-2-en-1-one] | 100 to 1000 nM | 100 to 1000 nM |  | 
(S)-1-(2-((4-((3-methyl-4-((1-methyl-1H-benzo[d]imidazol-5-yl)oxy)phenyl)amino)pyrido[3,2-d]pyrimidin-6-yl)ethynyl)pyrrolidin-1-yl)prop-2-en-1-one [Example 87] |  |  | < 100 nM | 1000 to 5000 nM
N-(2-((4-((4-([1,2,4]triazolo[1,5-a]pyridin-7-yloxy)-3-methylphenyl)amino)pyrido[3,2-d]pyrimidin-6-yl)amino)ethyl)-N-methylacrylamide [Example 11] |  |  | 100 to 1000 nM | 1000 to 5000 nM
N-(2-((8-((4-([1,2,4]triazolo[1,5-a]pyridin-7-yloxy)-3-methylphenyl)amino)pyrimido[5,4-d]pyrimidin-2-yl)oxy)ethyl)-N-methylacrylamide [Example 4] |  |  | 1000 to 5000 nM | 1000 to 5000 nM
N-methyl-N-(2-((8-((3-methyl-4-((1-methyl-1H-benzo[d]imidazol-5-yl)oxy)phenyl)amino)pyrimido[5,4-d]pyrimidin-2-yl)amino)ethyl)acrylamide [Example 16] |  |  | 100 to 1000 nM | > 5000 nM
